From the NIST ThermoML archive (doi:10.1016/j.jct.2017.03.032)

Assay: wn = mass fraction of the nth substance listed
Details: Gas, Burnett expansion method

F/C=C/C(F)(F)F [trans-1,3,3,3-tetrafluoropropene] + CC(C)C
Details	mass density [kg/m3]
315.14 K, 227.3 kPa, w1 = 0.65	7.7977
315.14 K, 297.2 kPa, w1 = 0.65	10.348
315.14 K, 301.4 kPa, w1 = 0.75	11.3213
315.14 K, 386 kPa, w1 = 0.65	13.7325
315.14 K, 392.5 kPa, w1 = 0.75	15.0241
315.14 K, 497.8 kPa, w1 = 0.65	18.2238
315.14 K, 506.8 kPa, w1 = 0.75	19.9379
315.14 K, 642.7 kPa, w1 = 0.75	26.4588
315.15 K, 173.5 kPa, w1 = 0.65	5.8759
315.15 K, 173.8 kPa, w1 = 0.7	6.1345
315.15 K, 175.6 kPa, w1 = 0.75	6.4285
315.15 K, 190.1 kPa, w1 = 0.85	7.5778
315.15 K, 229.1 kPa, w1 = 0.7	8.1409
315.15 K, 230.4 kPa, w1 = 0.75	8.531
315.15 K, 249.3 kPa, w1 = 0.85	10.0562
315.15 K, 299.1 kPa, w1 = 0.7	10.8034
315.15 K, 325.7 kPa, w1 = 0.85	13.3452
315.15 K, 390.1 kPa, w1 = 0.7	14.3368
315.15 K, 422.3 kPa, w1 = 0.85	17.7101
315.15 K, 497.7 kPa, w1 = 0.7	19.0258
315.15 K, 539.7 kPa, w1 = 0.85	23.5026
315.16 K, 185.3 kPa, w1 = 0.8	7.0584
315.16 K, 317.7 kPa, w1 = 0.8	12.4305
315.16 K, 333.2 kPa, w1 = 0.9	14.2331
315.16 K, 412.2 kPa, w1 = 0.8	16.4962
315.16 K, 529.7 kPa, w1 = 0.8	21.8918
315.17 K, 148.1 kPa, w1 = 0.9	6.0901
315.17 K, 194.6 kPa, w1 = 0.9	8.0819
315.17 K, 243 kPa, w1 = 0.8	9.3669
315.17 K, 255.2 kPa, w1 = 0.9	10.7253
315.17 K, 432.8 kPa, w1 = 0.9	18.8881
315.17 K, 551.9 kPa, w1 = 0.9	25.0657
320.12 K, 779.8 kPa, w1 = 0.8	33.8752
320.13 K, 286 kPa, w1 = 0.8	10.922
320.13 K, 373.2 kPa, w1 = 0.8	14.4942
320.13 K, 483.3 kPa, w1 = 0.8	19.2347
320.13 K, 616.7 kPa, w1 = 0.8	25.5259
320.14 K, 165.2 kPa, w1 = 0.8	6.2018
320.14 K, 168.8 kPa, w1 = 0.9	6.8698
320.14 K, 218.3 kPa, w1 = 0.8	8.2301
320.14 K, 221.7 kPa, w1 = 0.9	9.1166
320.14 K, 290.4 kPa, w1 = 0.9	12.0982
320.14 K, 378.8 kPa, w1 = 0.9	16.0551
320.14 K, 491 kPa, w1 = 0.9	21.3061
320.14 K, 621.3 kPa, w1 = 0.9	28.2744
320.15 K, 148.8 kPa, w1 = 0.7	5.1243
320.15 K, 195.8 kPa, w1 = 0.7	6.8002
320.15 K, 256.8 kPa, w1 = 0.7	9.0242
320.15 K, 335.6 kPa, w1 = 0.7	11.9756
320.15 K, 340.3 kPa, w1 = 0.65	11.7766
320.15 K, 435.2 kPa, w1 = 0.7	15.8926
320.15 K, 441.3 kPa, w1 = 0.65	15.6283
320.15 K, 556 kPa, w1 = 0.7	21.0901
320.15 K, 569.2 kPa, w1 = 0.65	20.7395
320.16 K, 152 kPa, w1 = 0.65	5.039
320.16 K, 154 kPa, w1 = 0.75	5.5344
320.16 K, 199.9 kPa, w1 = 0.65	6.687
320.16 K, 262 kPa, w1 = 0.65	8.8741
320.16 K, 266.1 kPa, w1 = 0.75	9.7466
320.16 K, 347.7 kPa, w1 = 0.75	12.9343
320.16 K, 577.4 kPa, w1 = 0.75	22.7785
320.16 K, 730.8 kPa, w1 = 0.75	30.2287
320.17 K, 203 kPa, w1 = 0.75	7.3444
320.17 K, 451.9 kPa, w1 = 0.75	17.1645
320.19 K, 162.2 kPa, w1 = 0.85	6.3277
320.19 K, 214.1 kPa, w1 = 0.85	8.3973
320.19 K, 279.4 kPa, w1 = 0.85	11.1439
320.19 K, 364.7 kPa, w1 = 0.85	14.7884
320.19 K, 472.3 kPa, w1 = 0.85	19.6252
320.19 K, 605 kPa, w1 = 0.85	26.0438
320.19 K, 764.8 kPa, w1 = 0.85	34.5619
325.1 K, 181 kPa, w1 = 0.85	6.9723
325.1 K, 219.4 kPa, w1 = 0.75	7.845
325.1 K, 287.7 kPa, w1 = 0.75	10.4108
325.1 K, 311.6 kPa, w1 = 0.85	12.2787
325.1 K, 374.7 kPa, w1 = 0.75	13.8158
325.1 K, 406.4 kPa, w1 = 0.85	16.2947
325.1 K, 488 kPa, w1 = 0.75	18.3343
325.1 K, 523.6 kPa, w1 = 0.85	21.624
325.1 K, 621.5 kPa, w1 = 0.75	24.3306
325.1 K, 668.2 kPa, w1 = 0.85	28.6964
325.1 K, 786.7 kPa, w1 = 0.75	32.2887
325.1 K, 844.6 kPa, w1 = 0.85	38.0818
325.11 K, 166.4 kPa, w1 = 0.7	5.6568
325.11 K, 167.1 kPa, w1 = 0.75	5.9115
325.11 K, 218.6 kPa, w1 = 0.7	7.5069
325.11 K, 237.8 kPa, w1 = 0.85	9.2525
325.11 K, 286.7 kPa, w1 = 0.7	9.9621
325.11 K, 373.4 kPa, w1 = 0.7	13.2204
325.11 K, 483.2 kPa, w1 = 0.7	17.5443
325.11 K, 617.3 kPa, w1 = 0.7	23.2823
325.13 K, 167.9 kPa, w1 = 0.65	5.518
325.13 K, 220.6 kPa, w1 = 0.65	7.3227
325.13 K, 289.1 kPa, w1 = 0.65	9.7176
325.13 K, 377.5 kPa, w1 = 0.65	12.8959
325.13 K, 484.7 kPa, w1 = 0.65	17.1136
325.13 K, 619.9 kPa, w1 = 0.65	22.7108
325.17 K, 238.4 kPa, w1 = 0.8	8.8968
325.17 K, 312.1 kPa, w1 = 0.8	11.8066
325.17 K, 407 kPa, w1 = 0.8	15.6681
325.17 K, 526.5 kPa, w1 = 0.8	20.7926
325.17 K, 669 kPa, w1 = 0.8	27.593
325.17 K, 846.3 kPa, w1 = 0.8	36.6175
325.18 K, 181.5 kPa, w1 = 0.8	6.704
325.18 K, 192.3 kPa, w1 = 0.9	7.7424
325.18 K, 252.4 kPa, w1 = 0.9	10.2747
325.18 K, 330.4 kPa, w1 = 0.9	13.6351
325.18 K, 430.4 kPa, w1 = 0.9	18.0945
325.18 K, 549.6 kPa, w1 = 0.9	24.0125
325.18 K, 703.2 kPa, w1 = 0.9	31.8661
330.12 K, 156.9 kPa, w1 = 0.75	5.446
330.12 K, 205.5 kPa, w1 = 0.75	7.2271
330.12 K, 271 kPa, w1 = 0.75	9.5908
330.12 K, 354.5 kPa, w1 = 0.75	12.7274
330.12 K, 457.3 kPa, w1 = 0.75	16.8904
330.12 K, 588.2 kPa, w1 = 0.75	22.4145
330.12 K, 750 kPa, w1 = 0.75	29.7454
330.12 K, 945.5 kPa, w1 = 0.75	39.4741
330.12 K, 981.5 kPa, w1 = 0.85	44.7652
330.13 K, 163.7 kPa, w1 = 0.85	6.1759
330.13 K, 215.1 kPa, w1 = 0.85	8.1958
330.13 K, 282.7 kPa, w1 = 0.85	10.876
330.13 K, 369.7 kPa, w1 = 0.85	14.4335
330.13 K, 612.7 kPa, w1 = 0.85	25.4187
330.13 K, 779.3 kPa, w1 = 0.85	33.7323
330.14 K, 476.1 kPa, w1 = 0.85	19.1537
330.2 K, 440.7 kPa, w1 = 0.7	15.4891
330.2 K, 559.7 kPa, w1 = 0.7	20.5552
330.2 K, 717.8 kPa, w1 = 0.7	27.2782
330.21 K, 338.1 kPa, w1 = 0.7	11.6715
330.21 K, 929.7 kPa, w1 = 0.9	43.8273
330.22 K, 153.7 kPa, w1 = 0.9	6.0465
330.22 K, 202.2 kPa, w1 = 0.9	8.024
330.22 K, 258.3 kPa, w1 = 0.7	8.7948
330.22 K, 265.5 kPa, w1 = 0.9	10.6483
330.22 K, 347.5 kPa, w1 = 0.9	14.131
330.22 K, 452.8 kPa, w1 = 0.9	18.7526
330.22 K, 576.5 kPa, w1 = 0.9	24.8861
330.22 K, 735.5 kPa, w1 = 0.9	33.0255
330.23 K, 145.4 kPa, w1 = 0.65	4.6896
330.23 K, 149.5 kPa, w1 = 0.7	4.9937
330.23 K, 192.1 kPa, w1 = 0.65	6.2233
330.23 K, 252.5 kPa, w1 = 0.65	8.2587
330.23 K, 272.1 kPa, w1 = 0.8	10.0277
330.23 K, 354.3 kPa, w1 = 0.8	13.3074
330.23 K, 463.4 kPa, w1 = 0.8	17.6597
330.23 K, 754.4 kPa, w1 = 0.8	31.1003
330.23 K, 951.7 kPa, w1 = 0.8	41.2719
330.24 K, 157.7 kPa, w1 = 0.8	5.6939
330.24 K, 196.7 kPa, w1 = 0.7	6.6269
330.24 K, 207.3 kPa, w1 = 0.8	7.5562
330.24 K, 330.6 kPa, w1 = 0.65	10.9596
330.24 K, 431.5 kPa, w1 = 0.65	14.544
330.24 K, 590.5 kPa, w1 = 0.8	23.435
330.24 K, 702.3 kPa, w1 = 0.65	25.6134
330.25 K, 548.5 kPa, w1 = 0.65	19.3004
